Assay results from US20220000860A1, “COMPOUNDS, COMPOSITIONS, AND METHODS FOR TREATING HUMAN IMMUNODEFICIENCY VIRUS” (OYAGEN, INC., priority 2017, published 2022).
Where two headings read alike, the source gives them in different places.

What was measured:
[1] = tested on: Vif-dependent APOBEC3G degradation; assay: Vif-Dependent APOBEC3G Degradation Assay; format: cell-based, HIV
Description: APOBEC3G-V5-mCherry was stably expressed from the pIRES-P vector in 293T cells under puromycin selection. Fifty ng of plasmid expressing Vif-HA (accession no. AB573087) was transfected into the cells in 384-well format with Turbofect on a liquid handling robot. Four hours after transfection the compounds were added to cells in a range from 0-15 μM. Twenty-four hours after compound addition mCherry fluorescence was read on a BioTek Synergy4 plate reader (ex=587 nm, em=610 nm). Relative fluorescence units (RFU) from compound treated wells were quantified using thresholds set by the −Vif (positive control) and +Vif (negative control).

[2] = target: T1, topoisomerase I (TOP1) (Homo sapiens, UniProt P11387); assay: topoisomerase I inhibition
T1 sequence (P11387 1-765): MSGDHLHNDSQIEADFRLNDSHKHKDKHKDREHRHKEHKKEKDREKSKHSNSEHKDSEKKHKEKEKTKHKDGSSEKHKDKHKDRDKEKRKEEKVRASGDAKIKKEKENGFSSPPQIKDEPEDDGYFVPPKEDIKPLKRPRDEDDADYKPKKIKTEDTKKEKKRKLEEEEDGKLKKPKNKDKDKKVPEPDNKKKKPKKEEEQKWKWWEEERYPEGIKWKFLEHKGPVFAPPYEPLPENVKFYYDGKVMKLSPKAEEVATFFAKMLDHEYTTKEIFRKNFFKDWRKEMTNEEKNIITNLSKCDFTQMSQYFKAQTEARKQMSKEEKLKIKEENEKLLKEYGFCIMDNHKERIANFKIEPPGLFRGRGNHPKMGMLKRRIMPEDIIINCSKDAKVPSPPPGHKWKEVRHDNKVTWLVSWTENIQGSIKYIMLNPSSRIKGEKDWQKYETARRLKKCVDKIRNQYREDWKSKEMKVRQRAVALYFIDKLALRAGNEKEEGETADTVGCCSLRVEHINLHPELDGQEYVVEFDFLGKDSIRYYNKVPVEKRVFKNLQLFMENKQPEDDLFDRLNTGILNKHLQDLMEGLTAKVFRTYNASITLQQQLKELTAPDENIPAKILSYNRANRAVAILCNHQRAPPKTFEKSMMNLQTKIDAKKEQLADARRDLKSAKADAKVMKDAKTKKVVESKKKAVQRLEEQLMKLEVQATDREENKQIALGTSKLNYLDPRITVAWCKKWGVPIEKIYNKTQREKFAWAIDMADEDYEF

[3] = target: T2, pNL4-3 Vif (Vif multimerization) (Human immunodeficiency virus type 1 group M subtype B, UniProt P12504); assay: Vif FqRET Multimerization Assay; format: cell-based, HIV
T2 construct: expressed in transfected cells; host or cells: HEK293T
Source text: The quenched fluorescence resonance energy transfer (FqRET) cell-based assay utilized expression of pNL4-3 Vif (accession no. M19921) tagged separately with either a EGFP fluorophore (EGFP-V5-Vif) or a REACh2 quencher (Vif-HA-REACh2) in the pIRES-P vector. The Vif multimerization assay was established through robotic co-transfection of HEK293T (293T) cells with Turbofect (Thermo) and optimized for input plasmid ratio (1:4, fluorophore to quencher) to achieve maximum quench of fluorescent signal. EGFP fluorescence was quantified 24 hours after transfection with a BioTek Synergy4 plate reader (ex=485 nm, em=528 nm) followed by the addition of 0-30 μM compound. The plates were read a second time 24 hours after compound addition. The differential between the first and second read in each well was quantified relative to the DMSO control to determine the change in relative fluorescence units (ΔRFU)
The interaction of 2 molecules of Vif (i.e. dimerization) enables quenching of Enhanced Green Fluorescent Protein (EGFP) signal by Resonance Energy Accepting Chromophore 2 (REACh2), a dark mutant of yellow fluorescent protein that is capable of accepting the EGFP donor fluorescence and quenching its signal without an acceptor signal.

[4] = PBMC Acute Infection, cytotoxicity (CC50/CC90); format: cell-based; conditions: human
Description: (§1) PHA-stimulated cells from at least two normal donors were pooled (i.e. mixed together), diluted in fresh medium to a final concentration of 1×10^6 cells/mL, and plated in the interior wells of a 96-well round bottom microplate at 50 μL/well (5×10^4 cells/well). Pooling of mononuclear cells from more than one donor was used to minimize the variability observed between individual donors in quantitative and qualitative differences in HIV infection and overall response to the PHA and IL-2 of primary lymphocyte populations. Each plate contained virus control wells (cells plus virus) and experimental wells (drug plus cells plus virus) of either 00KE_KER2008 (Subtype A), IIIB (Subtype B), or 98US_MSC5016 (Subtype C). Test drug dilutions were prepared at a 2×concentration and 100 μL of each concentration was placed in appropriate wells. Fifty μL of a predetermined dilution of virus stock was placed in each test well (final MOI≅0.1). After this period, cell-free supernatant samples were collected for analysis of reverse transcriptase (RT) activity with an RT assay. […] In the Table below SI50=CC50/EC50 and SI90=CC90/EC90.

[5] = tested on: PBMCs; assay: PBMC Acute Infection, cytotoxicity (CC50/CC90); format: cell-based
Description: as §1

[6] = tested on: 00KE_KER2008 (Subtype A); assay: PBMC Acute Infection, 00KE_KER2008; format: cell-based, HIV
Description: as §1

[7] = tested on: IIIB (Subtype B); assay: PBMC Acute Infection, IIIB; format: cell-based, HIV
Description: as §1

[8] = tested on: 98US_MSC5016 (Subtype C); assay: PBMC Acute Infection, 98US_MSC5016; format: cell-based, HIV
Description: as §1

[9] = target: T1, topoisomerase I (TOP1); conditions: comparison statement; cited from earlier work
[10] = target: T3, recombinant HIV (pNL4-3) heterodimeric (p66/p51) Reverse Transcriptase (Human immunodeficiency virus type 1 group M subtype B, UniProt P12497); assay: reverse transcriptase assay; format: biochemical
T3 construct: purified recombinant HIV (pNL4-3) heterodimeric (p66/p51) Reverse Transcriptase (RT); purchased
Description: For the assays listed in Table I, the integrase assay was conducted using the XpressBio HIV-1 Integrase Assay Kit according to the manufacture's protocol. The protease assay was conducted with the Anthranilyl (Abz)-HIV Protease Substrate (Bachem H-2992), a hexapeptide FRET substrate derived from the p24/p15 cleavage site of the viral gag-pol poly-protein, which allows the screening of potential HIV protease inhibitors. 1 mM Abz-Substrate was diluted with Assay Buffer to a working stock of 20 μM. A 50 μM stock HIV-1 protease (received from Sook-kyung Lee (UNC)) was diluted with Assay Buffer (50 mM HEPES, pH 6.8, 150 mM NaCl, and 1% DMSO) to a working stock of 100 nM. 2 μl 100 nM HIV-1 Protease along with 2 uL 20 μM Abz Substrate was added into each well and incubated at room temperature (avoiding light) for 1 hour before being read on an Envision plate reader (Perkin Elmer) excitation at 280 nm, emission at >435 nm. The reverse transcriptase assay utilized purified recombinant HIV (pNL4-3) heterodimeric (p66/p51) Reverse Transcriptase (RT) that was purchased from a commercially available source. The assay was performed in 96-well filter plate, where RT activity was determined by the incorporation of radiolabeled deoxyribonucleotides into the newly synthesized DNA strand. The RT reaction mixture contained in vitro transcribed viral RNA derived from the HIV-1NL4-3 5′-LTR region (position 454 to 652) and primer that is complementary to the primer binding site (PBS, nucleotide residues nucleotides 636 to 652), radiolabeled deoxyribonucleotide, dNTPs and reverse transcriptase. Briefly, the reaction was carried out in a volume of 50 μl containing 50 mM Tris HCl, pH 7.8, 50 mM KCl, 5 mM MgCl2, 1 mM DTT, 50 μM each of dATP, dCTP, dGTP, 50 nM dTTP, 1 μCi of [^3H] dTTP (70-90 Ci/mM) and 5 nM template/primer. The reaction was initiated by the addition of 10 nM RT. For compound screening, serially diluted test articles were added to the reaction followed by the addition of RT. The reaction mixture was incubated at 37° C. for 1 h, and then quenched by the addition of ice-cold trichloroacetic acid (TCA) to the final concentration of 10%. The plate was incubated at 4° C. for 1 h to precipitate the synthesized DNA, then rinsed 3-times with 10% TCA and 1 time with 70% ethanol. After addition of 25 μl scintillation fluid to completely dried wells, radioactivity is counted by MicroBeta scintillation counter. The reduction of radioactivity represents the potency of compound inhibition.

[11] = Human immunodeficiency virus 1, read-out: A3G degradation at
[12] = row of isolate 00KE-KER2008, subtype A
[13] = row of isolate 98US_MSC5016, subtype C
[14] = Human immunodeficiency virus 1, PBMC
[15] = Human immunodeficiency virus 1, IIIB

T2 sequence (P12504 whole entry): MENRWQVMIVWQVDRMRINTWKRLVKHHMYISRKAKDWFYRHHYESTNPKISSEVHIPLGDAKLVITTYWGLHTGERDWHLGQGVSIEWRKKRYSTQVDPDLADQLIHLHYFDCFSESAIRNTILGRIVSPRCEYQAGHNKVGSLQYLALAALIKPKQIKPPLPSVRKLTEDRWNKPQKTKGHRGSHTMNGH

Q: With `CC[C@@]1(O)C(=O)NCc2c1cc1n(c2=O)Cc2cc3c(N)cccc3nc2-1` [Compound O5-9A, (S)-10-Amino-4-ethyl-4-hydroxy-1,2-dihydroquinolino[2′,3′:3,4]pyrrolo[1,2-b][2,7]naphthyridine-3,14(4H,12H)-dione] as the molecule, how does the “Vif-dependent A3G degradation (result in words)” value [1] read?
A: block

Q: What about the EC50 ([1]; Human immunodeficiency virus 1, HEK-293T, 24 h, read-out: EC50, A3G Degradation Assay) of the same molecule?
A: 1200 nM

Q: What about the EC50 [1, 11] of the same molecule?
A: 1000 nM

Q: And the “inhibition of topoisomerase I (TOP1) (result in words)” value [2]?
A: do not inhibit

Q: And the EC50 [3]?
A: 3870 nM

Q: What about the “Vif multimerization (result in words)” value [3] of the same molecule?
A: block

Q: And the CC50 [4, 12]?
A: 9320 nM

Q: And the CC90 [4, 12]?
A: > 100000 nM

Q: And the CC50 [4, 13]?
A: 9320 nM

Q: What about the CC50 ([4]; row of isolate IIIB, subtype B) of the same molecule?
A: 10000 nM

Q: What about the CC90 [5, 13] of the same molecule?
A: > 100000 nM

Q: What about the CC90 ([5]; row of isolate IIIB, subtype B) of the same molecule?
A: > 100000 nM

Q: What about the EC50 ([6]; Human immunodeficiency virus 1, PBMC, isolate 00KE-KER2008, subtype A, RT activity readout, read-out: EC50) of the same molecule?
A: 50 nM

Q: What about the EC90 ([6]; Human immunodeficiency virus 1, PBMC, isolate 00KE-KER2008, subtype A, RT activity readout, read-out: EC90) of the same molecule?
A: 230 nM

Q: What about the EC50 ([7]; Human immunodeficiency virus 1, isolate IIIB, subtype B, RT activity readout, read-out: EC50) of the same molecule?
A: 150 nM

Q: What about the EC90 ([7]; Human immunodeficiency virus 1, isolate IIIB, subtype B, RT activity readout, read-out: EC90) of the same molecule?
A: 310 nM

Q: And the EC50 ([8]; Human immunodeficiency virus 1, PBMC, isolate 98US_MSC5016, subtype C, RT activity readout, read-out: EC50)?
A: 60 nM

Q: And the EC90 ([8]; Human immunodeficiency virus 1, PBMC, isolate 98US_MSC5016, subtype C, RT activity readout, read-out: EC90)?
A: 220 nM

Q: Which EC50 [1, 11] does the source give for `CCc1c2c(nc3ccc(OC(=O)N4CCC(N5CCCCC5)CC4)cc13)-c1cc3c(c(=O)n1C2)CNC(=O)[C@]3(O)CC` [Irino-L, (S)-4,11-diethyl-4-hydroxy-3,14-dioxo-1,2,3,4,12,14-hexahydroquinolino[2′,3′:3,4]pyrrolo[1,2-b][2,7]naphthyridin-9-yl [1,4′-bipiperidine]-1′-carboxylate] here?
A: 5000 nM

Q: What about the CC50 [4, 12] of the same molecule?
A: 17700 nM

Q: What about the CC90 [4, 12] of the same molecule?
A: 82800 nM

Q: And the EC50 [6, 14]?
A: 2260 nM

Q: And the EC90 [6, 14]?
A: 7710 nM

Q: And the EC50 [7, 15]?
A: 2290 nM

Q: And the EC90 [7, 15]?
A: 7920 nM

Q: What about the EC50 [8, 14] of the same molecule?
A: 1850 nM

Q: What about the EC90 [8, 14] of the same molecule?
A: 7110 nM

Q: With `CC[C@@]1(O)C(=O)OCc2c1cc1n(c2=O)Cc2cc3ccccc3nc2-1` [camptothecin] as the molecule, how does the “inhibition of topoisomerase I (TOP1) (result in words)” value [9] read?
A: inhibit

Q: With `Cc1ccnc2c1NC(=O)c1cccnc1N2C1CC1` [nevirapine, reference compound] as the molecule, how does the IC50 [10] read?
A: 230 nM
